Measurements published in US10350271B2, “Lipidated peptides for lowering blood glucose” (USTAV ORGANICKE CHEMIE A BIOCHEMIE AKADEMIE VED CR, V.V.I., priority 2014, dated 2019).

Target: T1, human PrRP receptor GPR10 (Homo sapiens, UniProt P49683)
T1 construct: host or cells: CHO cells
T1 sequence (P49683 1-370): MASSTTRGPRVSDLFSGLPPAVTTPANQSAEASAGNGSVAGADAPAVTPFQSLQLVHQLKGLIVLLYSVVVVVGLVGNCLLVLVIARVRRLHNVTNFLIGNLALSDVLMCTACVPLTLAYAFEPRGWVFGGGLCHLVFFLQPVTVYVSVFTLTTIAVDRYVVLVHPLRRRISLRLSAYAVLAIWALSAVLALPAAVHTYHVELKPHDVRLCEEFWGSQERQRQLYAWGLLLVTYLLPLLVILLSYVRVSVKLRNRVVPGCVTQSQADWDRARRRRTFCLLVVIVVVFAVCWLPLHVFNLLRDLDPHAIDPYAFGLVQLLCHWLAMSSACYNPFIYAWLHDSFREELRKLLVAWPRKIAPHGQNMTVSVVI
Experiment: Competitive binding in CHO cells transfected with human GPR10 (human 125I-PrRP31)
Procedure, shortened: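 GPR10-transfected CHO cells (40-80 thousand/well) incubated 60 min at room temperature with 5×10^-11 mol·l^-1 human 125I-PrRP31 and unlabeled analog at 10^-11 to 10^-4 mol·l^-1 in Tris binding buffer pH 7.4. Cells solubilized in 0.1 mol/l NaOH, γ-counted; one-site nonlinear regression fit.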

CCCCCCCCCCCCCCCC(=O)N[C@@H](CO)C(=O)N[C@@H](CCCNC(=N)N)C(=O)N[C@H](C(=O)N[C@@H](Cc1c[nH]cn1)C(=O)N[C@@H](CCCNC(=N)N)C(=O)N[C@@H](Cc1c[nH]cn1)C(=O)N[C@@H](CO)C(=O)N[C@@H](CCSC)C(=O)N[C@@H](CCC(=O)O)C(=O)N[C@H](C(=O)N[C@@H](CCCNC(=N)N)C(=O)N[C@H](C(=O)N1CCC[C@H]1C(=O)N[C@@H](CC(=O)O)C(=O)N[C@H](C(=O)N[C@@H](CC(N)=O)C(=O)N1CCC[C@H]1C(=O)N[C@@H](C)C(=O)N[C@@H](Cc1c[nH]c2ccccc12)C(=O)N[C@@H](Cc1ccc(O)cc1)C(=O)N[C@@H](C)C(=O)N[C@@H](CO)C(=O)N[C@@H](CCCNC(=N)N)C(=O)NCC(=O)N[C@H](C(=O)N[C@@H](CCCNC(=N)N)C(=O)N1CCC[C@H]1C(=O)N[C@H](C(=O)NCC(=O)N[C@@H](CCCNC(=N)N)C(=O)N[C@@H](Cc1ccccc1)C(N)=O)C(C)C)[C@@H](C)CC)[C@@H](C)CC)[C@@H](C)O)[C@@H](C)CC)[C@@H](C)O [Analog 43] was tested, and the “% of PrRP31, GPR10 human receptor transfected in CHO cells” value (affinity relative to PrRP31) was 90% and the “Displacement of human 125I-PrRP binding” value (human GPR10 receptor) was “nmol·l^−1 range”.
